Here are results for 15 molecules from patent publication US10053468B2, “Heterocyclic compound” (TAKEDA PHARMACEUTICAL COMPANY LIMITED, priority 2013, dated 2018).

Test [1] deals with T1, RORγt (Homo sapiens, UniProt P51449).
T1 sequence (P51449 1-497 isoform P51449-2): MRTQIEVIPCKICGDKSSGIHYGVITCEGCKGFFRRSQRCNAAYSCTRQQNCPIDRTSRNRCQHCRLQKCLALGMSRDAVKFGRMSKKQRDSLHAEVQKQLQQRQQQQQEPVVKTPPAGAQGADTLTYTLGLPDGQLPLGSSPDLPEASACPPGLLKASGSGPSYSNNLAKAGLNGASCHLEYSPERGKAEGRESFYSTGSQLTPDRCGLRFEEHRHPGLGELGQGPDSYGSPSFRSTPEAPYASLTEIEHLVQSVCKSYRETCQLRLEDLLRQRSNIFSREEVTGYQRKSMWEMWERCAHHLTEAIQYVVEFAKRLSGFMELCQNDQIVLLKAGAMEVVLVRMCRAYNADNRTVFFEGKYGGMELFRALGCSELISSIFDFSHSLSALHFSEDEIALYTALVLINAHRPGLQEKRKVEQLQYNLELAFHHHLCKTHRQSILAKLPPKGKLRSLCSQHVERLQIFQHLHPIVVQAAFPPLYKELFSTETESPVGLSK
Put plainly: Jurkat reporter test (human IL-17 ROR response element luciferase, RORγt vector). It counts as cell-based. Particulars: read-out: Luminescence level inhibitory rate at test compound 3 μM (%). On the procedure: The Jurkat cells used for the reporter test were cultured in a culture medium (RPMI (Invitrogen), 10% FCS (AusGeneX), 100 U/mL penicillin, 100 μg/mL streptomycin). On the day of the test, 4×10^7 cells were recovered by a centrifugal operation (1000 rpm, 5 min.) and suspended in PBS (phosphate buffered saline) (Invitrogen). Thereafter, the cells were recovered again by a centrifugal operation, and suspended in 2 mL of R buffer (NEON transfection kit, Invitrogen). […] Gene transfer was performed by Electroporation apparatus (NEON, Invitrogen) under the conditions of pulse voltage 1350 V, interval 10 milliseconds, number of times 3. The cells after gene transfer were suspended in 40 mL of a reaction medium (RPMI, 10% Lipid reduced FCS (HyClone), 10 mM HEPES (pH 7.5), 100 U/mL penicillin, 100 μg/mL streptomycin, 5 μM lovastatin), and plated in a 96 well plate by 90 μL. A test compound diluted with the reaction medium was added by 10 μL, and the cells were cultured overnight in an incubator. Bright-Glo (Promega) was added by 100 μL, and the mixture was stirred at room temperature for 10 min, and the luminescence level was measured by Envision (PerkinElmer).

For test [2], the target named is T1, RORγt. Put plainly: Cofactor recruitment test (Alpha Screen, biotinylated SRC-1 peptide). The following applies: read-out: Signal value inhibitory rate at test compound 1 μM (%). It counts as biochemical. On the procedure:
Cofactor Recruitment Test
Cofactor recruitment test was performed by Alpha Screen (Histidine Detection Kit, PerkinElmer) method. First, a test compound was diluted with an assay buffer (50 mM Tris-HCl (pH 7.5), 50 mM KCl, 1 mM DTT, 0.1% BSA) and added to a 384 well plate by 5 μL. […] The mixture was stood in a dark place for 1 hr, and the signal value was measured by Envision (PerkinElmer).

The target of test [3] is T1, RORγt. Put plainly: RORγt binding test using fluorescent-labeled cholesterol (TR-FRET). The following applies: read-out: Binding inhibitory rate of fluorescent-labeled cholesterol to RORγt at test compound 1 μM (%). On the procedure: RORγt Binding Test Using Fluorescent-labeled Cholesterol
The binding activity of the test compound to RORγt was measured by a time resolved fluorescence resonance energy transfer method (TR-FRET) utilizing histidine-tagged RORγt, fluorescent-labeled cholesterol (BODIPY-cholesterol, AVIVA), and terbium-labeled anti-histidine tag antibody (Invitrogen). First, a test compound diluted with an assay buffer (20 mM Tris-HCl (pH 7.5), 100 mM NaCl, 1 mM DTT, 0.1% BSA) was added to a 384 well plate by 3 μL. Then, RORγt diluted with an assay buffer to 240 nM was added by 3 μL, after which fluorescent-labeled cholesterol diluted with the assay buffer to 12 μM was added by 3 μL, and the mixture was stood at room temperature for 20 min. Thereafter, a terbium-labeled anti-histidine tag antibody diluted with the assay buffer to 8 nM was added by 3 μL. The mixture was stood at room temperature for 20 min, and fluorescence intensity (excitation wavelength 320 nm, fluorescence wavelength 520 nm, delay time 100 microseconds) was measured by Envision (PerkinElmer).

Where [4] appears, read: test compound 3 μM, Jurkat cells.

Like-named read-outs stand apart in the source and are kept apart here.

Turning to `COc1ccc2c(c1)CCN(C(=O)c1cc(O)no1)C2C(=O)Nc1cc(F)c2c(c1)CCC2(C)C` (stereo not drawn) [Example 11, N-(7-fluoro-1,1-dimethyl-2,3-dihydro-1H-inden-5-yl)-2-((3-hydroxy-1,2-oxazol-5-yl)carbonyl)-6-methoxy-1,2,3,4-tetrahydroisoquinoline-1-carboxamide], at RORγt [1] (setting [4]), the inhibition at 3 µM came to 99.7%. The inhibition at 1 µM came out at 67.7% on RORγt [2] and 103% at RORγt [3].

As to `CCOCC(C)(C)c1c(F)cc(NC(=O)[C@H]2c3ccc(OCC)cc3CCN2C(=O)Cc2cc(O)no2)cc1F` [Example 168, (1R)-6-ethoxy-N-(4-(1-ethoxy-2-methylpropan-2-yl)-3,5-difluorophenyl)-2-((3-hydroxy-1,2-oxazol-5-yl)acetyl)-1,2,3,4-tetrahydroisoquinoline-1-carboxamide], on RORγt [1] (setting [4]), the inhibition at 3 µM is 99%. The inhibition at 1 µM on RORγt [2] turned out to be 86%; on RORγt [3] it was 97%.

Regarding `COc1ccc2c(c1)CCN(C(=O)Cn1cnccc1=O)[C@H]2C(=O)Nc1ccc(C(C)(C)C)c(F)c1` [Example 29, (1R)-N-(4-tert-butyl-3-fluorophenyl)-6-methoxy-2-((6-oxopyrimidin-1(6H)-yl)acetyl)-1,2,3,4-tetrahydroisoquinoline-1-carboxamide], at RORγt [1] (setting [4]), the inhibition at 3 µM was 102%. In addition, the inhibition at 1 µM is 88% at RORγt [2] and 102% at RORγt [3].

As to `CCOc1ccc2c(n1)CCN(C(=O)c1cc(O)no1)[C@H]2C(=O)Nc1ccc([Si](C)(C)C)c(F)c1` [Example 149, (5R)-2-ethoxy-N-(3-fluoro-4-(trimethylsilyl)phenyl)-6-((3-hydroxy-1,2-oxazol-5-yl)carbonyl)-5,6,7,8-tetrahydro-1,6-naphthyridine-5-carboxamide], the inhibition at 3 µM on RORγt [1] (Jurkat) came out at 103%. Besides, the inhibition at 1 µM on RORγt [2] came out at 99%; on RORγt [3], 103%.

For the molecule `COc1ccc2c(c1)CCN(C(=O)c1cc(O)no1)C2C(=O)Nc1ccc([Si](C)(C)C)c(F)c1` (stereo not drawn) [Example 3, N-(3-fluoro-4-(trimethylsilyl)phenyl)-2-((3-hydroxy-1,2-oxazol-5-yl)carbonyl)-6-methoxy-1,2,3,4-tetrahydroisoquinoline-1-carboxamide], the inhibition at 3 µM on RORγt [1] (Jurkat) turned out to be 99.6%. Further, the inhibition at 1 µM at RORγt [2] stood at 92.7%; on RORγt [3], 101%.

For `CC[Si](C)(C)c1c(F)cc(NC(=O)[C@H]2c3ccc(COC)nc3CCN2C(=O)Cc2cc(O)no2)cc1F` [Example 173, (5R)-N-(4-(ethyl (dimethyl)silyl)-3,5-difluorophenyl)-6-((3-hydroxy-1,2-oxazol-5-yl)acetyl)-2-(methoxymethyl)-5,6,7,8-tetrahydro-1,6-naphthyridine-5-carboxamide], the inhibition at 3 µM on RORγt [1] (Jurkat) was determined as 99%. The inhibition at 1 µM on RORγt [2] was 97%; at RORγt [3], 101%.

For the molecule `CC[Si](C)(C)c1c(F)cc(NC(=O)[C@H]2c3ccc(OC)nc3CCN2C(=O)Cc2cc(O)no2)cc1F` [Example 113, (5R)-N-(4-(ethyl (dimethyl)silyl)-3,5-difluorophenyl)-6-((3-hydroxy-1,2-oxazol-5-yl)acetyl)-2-methoxy-5,6,7,8-tetrahydro-1,6-naphthyridine-5-carboxamide], the inhibition at 3 µM on RORγt [1] (Jurkat) was 101%. Further, the inhibition at 1 µM turned out to be 99% at RORγt [2] and 104% on RORγt [3].

For `COc1ccc2c(n1)CCN(C(=O)c1cc(O)no1)[C@H]2C(=O)Nc1cc(F)c([Si](C)(C)C)c(F)c1` [Example 122, (5R)-N-(3,5-difluoro-4-(trimethylsilyl)phenyl)-6-((3-hydroxy-1,2-oxazol-5-yl)carbonyl)-2-methoxy-5,6,7,8-tetrahydro-1,6-naphthyridine-5-carboxamide], the inhibition at 3 µM at RORγt [1] (Jurkat) was 103%. Further, the inhibition at 1 µM came to 99% on RORγt [2] and 102% on RORγt [3].

In the case of `COc1ccc2c(c1)CCN(C(=O)CCCC(=O)O)[C@H]2C(=O)Nc1cc(F)c(C(C)(C)COCC(F)F)c(F)c1` [Example 162, 5-((1R)-1-((4-(1-(2,2-difluoroethoxy)-2-methylpropan-2-yl)-3,5-difluorophenyl)carbamoyl)-6-methoxy-3,4-dihydroisoquinolin-2(1H)-yl)-5-oxopentanoic acid], on RORγt [1] (setting [4]), the inhibition at 3 µM came to 95%. In addition, the figures for the inhibition at 1 µM at RORγt [2] and on RORγt [3] were 82% and 99%, respectively.

For the molecule `COc1ccc2c(c1)CCN(C(=O)c1ccc(=O)[nH]c1)C2C(=O)Nc1ccc([Si](C)(C)C)cc1` (stereo not drawn) [Example 2, 6-methoxy-2-((6-oxo-1,6-dihydropyridin-3-yl)carbonyl)-N-(4-(trimethylsilyl)phenyl)-1,2,3,4-tetrahydroisoquinoline-1-carboxamide], at RORγt [1] (Jurkat), the inhibition at 3 µM worked out at 98.1%. For the same molecule, the inhibition at 1 µM amounted to 80.5% on RORγt [2] and 99.7% at RORγt [3].

For the molecule `CCOc1ccc2c(n1)CCN(C(=O)c1cc(O)no1)[C@H]2C(=O)Nc1cc(F)c2c(c1)CCC2(C)C` [Example 145, (5R)-2-ethoxy-N-(7-fluoro-1,1-dimethyl-2,3-dihydro-1H-inden-5-yl)-6-((3-hydroxy-1,2-oxazol-5-yl)carbonyl)-5,6,7,8-tetrahydro-1,6-naphthyridine-5-carboxamide], the inhibition at 3 µM at RORγt [1] (setting [4]) came out at 100%. Further, the inhibition at 1 µM at RORγt [2] is 92%; at RORγt [3] it was 102%.

On to `COc1ccc2c(c1)CCN(C(=O)c1cc(O)no1)[C@H]2C(=O)Nc1cc(F)c(C(C)(C)COCC(F)F)c(F)c1` [Example 160, (1R)-N-(4-(1-(2,2-difluoroethoxy)-2-methylpropan-2-yl)-3,5-difluorophenyl)-2-((3-hydroxy-1,2-oxazol-5-yl)carbonyl)-6-methoxy-1,2,3,4-tetrahydroisoquinoline-1-carboxamide], for which the inhibition at 3 µM on RORγt [1] (setting [4]) was determined as 98%. The inhibition at 1 µM at RORγt [2] worked out at 82%; on RORγt [3], 100%.

With `CCOc1ccc2c(c1)CCN(C(=O)Cc1cc(O)no1)C2C(=O)Nc1cc(F)c2c(c1)CCC2(C)C` (stereo not drawn) [Example 55, 6-ethoxy-N-(7-fluoro-1,1-dimethyl-2,3-dihydro-1H-inden-5-yl)-2-((3-hydroxy-1,2-oxazol-5-yl)acetyl)-1,2,3,4-tetrahydroisoquinoline-1-carboxamide], on RORγt [1] (setting [4]), the inhibition at 3 µM amounted to 100%. Besides, the inhibition at 1 µM at RORγt [2] is 73.4%; on RORγt [3] it was 102%.

Turning to `COc1ccc2c(n1)CCN(C(=O)Cc1cc(O)no1)[C@H]2C(=O)Nc1cc(F)c([Si](C)(C)C)c(F)c1` [Example 124, (5R)-N-(3,5-difluoro-4-(trimethylsilyl)phenyl)-6-((3-hydroxy-1,2-oxazol-5-yl)acetyl)-2-methoxy-5,6,7,8-tetrahydro-1,6-naphthyridine-5-carboxamide], the inhibition at 3 µM on RORγt [1] (Jurkat) amounted to 102%. Besides, the inhibition at 1 µM amounted to 99% on RORγt [2] and 101% at RORγt [3].

Consider `COc1ccc2c(c1)CCN(C(=O)Cc1ccc(OC)nc1)[C@H]2C(=O)Nc1ccc(C(C)(C)C)c(F)c1` [Example 32, (1R)-N-(4-tert-butyl-3-fluorophenyl)-6-methoxy-2-((6-methoxypyridin-3-yl)acetyl)-1,2,3,4-tetrahydroisoquinoline-1-carboxamide], for which the inhibition at 3 µM at RORγt [1] (setting [4]) is 103%. The inhibition at 1 µM at RORγt [2] was determined as 89.9%; at RORγt [3], 101%.
